Data as given in patent publication US9617310B2 (priority 2013, dated 2017).
pEC50, pKi: −log10 of the molar value.

Experiments:
[1] = test system: genotype 1b wild-type transient HCV replicon in Huh-7-derived cells; assay: Transient-transfected HCV replicon, genotype 1b wild type; format: cell-based; settings: Hepatitis C virus; transient-transfected replicon genotype 1b wild type, 72 h; read-out: EC50 1B WT
[2] = test system: genotype 1a (H77) wild-type transient HCV replicon in Huh-7-derived cells; assay: Transient-transfected HCV replicon, genotype 1a wild type; format: cell-based; settings: Hepatitis C virus; transient-transfected replicon genotype 1a wild type, 72 h; read-out: EC50 1A WT
NS3 genotype 3a protease = target: T1, NS3 genotype 3a protease (UniProt Q81258); assay: Ki determination, NS3 protease genotype 3a (fluorogenic depsipeptide substrate); format: biochemical, hepatitis C virus; settings: NS3 protease domain genotype 3a, NS4A peptide
T1 construct: Purified NS3 protease domain (amino acids 1-181) of the genotype 1b and 3a virus were generated as above; fused on or other part: N-terminal hexahistidine tag with an rTEV protease cleavage site (vector p28-N6H-Tev-NS3(181)3)
T1 sequence (Q81258 1033-1663): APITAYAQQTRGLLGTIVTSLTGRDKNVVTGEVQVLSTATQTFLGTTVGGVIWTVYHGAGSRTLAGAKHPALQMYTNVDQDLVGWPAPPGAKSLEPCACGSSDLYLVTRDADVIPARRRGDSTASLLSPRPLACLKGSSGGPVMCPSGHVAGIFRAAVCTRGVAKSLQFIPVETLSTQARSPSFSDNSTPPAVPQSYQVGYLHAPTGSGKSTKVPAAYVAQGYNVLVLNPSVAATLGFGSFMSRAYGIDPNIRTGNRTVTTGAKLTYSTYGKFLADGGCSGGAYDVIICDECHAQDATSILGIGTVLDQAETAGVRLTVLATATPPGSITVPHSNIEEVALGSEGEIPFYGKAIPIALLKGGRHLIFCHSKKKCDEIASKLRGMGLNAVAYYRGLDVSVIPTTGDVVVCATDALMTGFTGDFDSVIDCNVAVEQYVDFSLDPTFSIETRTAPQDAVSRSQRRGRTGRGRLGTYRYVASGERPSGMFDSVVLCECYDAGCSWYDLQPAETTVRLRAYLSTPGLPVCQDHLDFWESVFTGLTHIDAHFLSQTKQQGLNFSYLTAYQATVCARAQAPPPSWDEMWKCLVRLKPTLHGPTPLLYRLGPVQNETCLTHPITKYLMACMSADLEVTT
Excerpt: Ki Determination for Genotypes 1b and 3a NS3 Protease.
Purified NS3 protease domain (amino acids 1-181) of the genotype 1b and 3a virus were generated as above. The internally quenched fluorogenic depsipeptide substrate Ac-DED(Edans)-EEAbuψ[COO]ASK(Dabcyl)-NH2 and a synthetic peptide containing the hydrophobic core residues of the NS4A protein cofactor ([…]; NS4A peptide) were obtained from Anaspec, Inc. (San Jose, Calif.). Other chemicals and biochemicals were of reagent grade or better and were purchased from standard suppliers.
Reactions were run at room temperature in buffer consisting of 50 mM HEPES, 40% glycerol, 0.05% Triton X-100, 10 mM DTT, and 10% DMSO. The final assay solutions contained 50 pM NS3 genotype 1b protease or 200 pM genotype 3a protease, 20 μM NS4A peptide, and 4 μM substrate (genotype 1b) or 2 μM substrate (genotype 3a). Inhibitor concentrations varied from 100 nM to 5 pM in 3-fold dilutions, and no-inhibitor controls were included.
Compound dilutions were made in DMSO at 20× final concentration. Reaction mixtures were prepared in 96-well assay plates. A solution of enzyme and NS4A peptide in assay buffer (25 μL volume with both reagents at 4× final concentration) was mixed with 45 μL assay buffer and 5 μL of either inhibitor or DMSO, and pre-incubated at room temperature for 1 hour. The reaction was started by addition of 25 μL substrate solution at 4× final concentration. Plates were mixed vigorously for 5-10 seconds and reactions were allowed to proceed for 90 minutes. Fluorescence was measured every 30 s between 90 and 120 minutes reaction time using a Tecan InfiniTe M1000 or PerkinElmer Envision multimode plate reader with an excitation wavelength of 340 nm and an emission wavelength of 490 nm.
Rates were calculated from the progress curves at steady state, in the time frame of 90-120 minutes after addition of substrate. To determine the Ki, rates were plotted as a function of inhibitor concentration, and the data were fit with equation 1 (Morrison, J. F., Biochimica et Biophysica Acta 1969, 185, 269-286) to calculate Ki^app using GraphPad Prism 5. Active fraction of enzyme was determined by active site titration with known potent inhibitors. Ki was calculated from Ki^app/(1+[[S]/Km]).

SMILES | pEC50 [1] | pEC50 [2] | pKi (NS3 genotype 3a protease)
COc1ccc2nc3c(nc2c1)O[C@@H]1C[C@@H](C(=O)N[C@]2(C(=O)NS(=O)(=O)C4CC4)C[C@H]2C(F)F)N(C1)C(=O)[C@H](C(C)(C)C)NC(=O)O[C@@H]1C[C@@H]2C[C@@H]2[C@H]1CCCCC3(F)F (racemic) [Example 9, (1aS,2aR,6S,9S,11R,23aR,23bS)-6-tert-butyl-N-[(1R,2R)-1-[(cyclopropylsulfonyl)carbamoyl]-2-(difluoromethyl)cyclopropyl]-19,19-difluoro-15-methoxy-4,7-dioxo-1a,2,2a,4,5,6,7,10,11,19,20,21,22,23,23a,23b-hexadecahydro-1H,9H-8,11-methanocyclopropa[4′,5′]cyclopenta[1′,2′:18,19][1,10,3,6]dioxadiazacyclononadecino[11,12-b]quinoxaline-9-carboxamide] | 9.15 | 8.89 | 10.70
CC(C)(C)[C@@H]1NC(=O)O[C@@H]2C[C@@H]3C[C@@H]3[C@H]2CCCCC(F)(F)c2nc3cc(F)c(F)cc3nc2O[C@@H]2C[C@@H](C(=O)N[C@]3(C(=O)NS(=O)(=O)C4CC4)C[C@H]3C(F)F)N(C2)C1=O (racemic) [Example 15, (1aS,2aR,6S,9S,11R,23aR,23bS)-6-tert-butyl-N-[(1R,2R)-1-[(cyclopropylsulfonyl)carbamoyl]-2-(difluoromethyl)cyclopropyl]-15,16,19,19-tetrafluoro-4,7-dioxo-1a,2,2a,4,5,6,7,10,11,19,20,21,22,23,23a,23b-hexadecahydro-1H,9H-8,11-methanocyclopropa[4′,5′]cyclopenta[1′,2′:18,19][1,10,3,6]dioxadiazacyclononadecino[11,12-b]quinoxaline-9-carboxamide] | 8.89 | 8.80 | 10.30
COc1ccc2nc3c(nc2c1)O[C@@H]1C[C@@H](C(=O)N[C@]2(C(=O)NS(=O)(=O)C4CC4)C[C@H]2C(F)F)N(C1)C(=O)[C@H](C(C)(C)C)NC(=O)O[C@@H]1C[C@@H]2C[C@@H]2[C@H]1CCCCC3 [Example 1, (1aS,2aR,6S,9S,11R,23aR,23bS)-6-tert-butyl-N-[(1R,2R)-1-[(cyclopropylsulfonyl)carbamoyl]-2-(difluoromethyl)cyclopropyl]-15-methoxy-4,7-dioxo-1a,2,2a,4,5,6,7,10,11,19,20,21,22,23,23a,23b-hexadecahydro-1H,9H-8,11-methanocyclopropa[4′,5′]cyclopenta[1′,2′:18,19][1,10,3,6]dioxadiazacyclononadecino[11,12-b]quinoxaline-9-carboxamide] | 9.21 | 9.00 | 10.52
COc1ccc2nc3c(nc2c1)O[C@@H]1C[C@@H](C(=O)N[C@]2(C(=O)NS(=O)(=O)C4(C)CC4)C[C@H]2C(F)F)N(C1)C(=O)[C@H](C(C)(C)C)NC(=O)O[C@@H]1C[C@@H]2C[C@@H]2[C@H]1CCCCC3 [Example 2, (1aS,2aR,6S,9S,11R,23aR,23bS)-6-tert-butyl-N-[(1R,2R)-2-(difluoromethyl)-1-{[(1-methylcyclopropyl)sulfonyl]carbamoyl}cyclopropyl]-15-methoxy-4,7-dioxo-1a,2,2a,4,5,6,7,10,11,19,20,21,22,23,23a,23b-hexadecahydro-1H,9H-8,11-methanocyclopropa[4′,5′]cyclopenta[1′,2′18,19][1,10,3,6]dioxadiazacyclononadecino[11,12-b]quinoxaline-9-carboxamide] | 9.13 | 8.96 | 10.40
COc1ccc2nc3c(nc2c1)O[C@@H]1C[C@@H](C(=O)N[C@]2(C(=O)NS(=O)(=O)C4CC4)C[C@H]2CC(F)F)N(C1)C(=O)[C@H](C(C)(C)C)NC(=O)O[C@@H]1C[C@@H]2C[C@@H]2[C@H]1CCCCC3 [Example 3, (1aS,2aR,6S,9S,11R,23aR,23bS)-6-tert-butyl-N-[(1R,2S)-1-[(cyclopropylsulfonyl)carbamoyl]-2-(2,2-difluoroethyl)cyclopropyl]-15-methoxy-4,7-dioxo-1a,2,2a,4,5,6,7,10,11,19,20,21,22,23,23a,23b-hexadecahydro-1H,9H-8,11-methanocyclopropa[4′,5′]cyclopenta[1′,2′:18,19][1,10,3,6]dioxadiazacyclononadecino[11,12-b]quinoxaline-9-carboxamide] | 8.54 | 8.29 | 9.68
COc1ccc2nc3c(nc2c1)O[C@@H]1C[C@@H](C(=O)N[C@]2(C(=O)NS(=O)(=O)C4CC4)C[C@H]2C(F)F)N(C1)C(=O)[C@H](C(C)(C)C)NC(=O)O[C@@H]1[C@H]2CC[C@H](C2)[C@H]1CCCCC3 [Example 4, (1R,4S,4aR,8S,11S,13R,25aR)-8-tert-butyl-N-[(1R,2R)-1-[(cyclopropylsulfonyl)carbamoyl]-2-(difluoromethyl)cyclopropyl]-17-methoxy-6,9-dioxo-2,3,4,4a,6,7,8,9,12,13,21,22,23,24,25,25a-hexadecahydro-1H,11H-1, 4:10,13-dimethanoquinoxalino[2,3-k][1,10,3,6]benzodioxadiazacyclononadecine-11-carboxamide] | 8.92 | 8.59 | 9.68
COc1ccc2nc3c(nc2c1)O[C@@H]1C[C@@H](C(=O)N[C@]2(C(=O)NS(=O)(=O)C4(C)CC4)C[C@H]2C(F)F)N(C1)C(=O)[C@H](C(C)(C)C)NC(=O)O[C@@H]1[C@H]2CC[C@H](C2)[C@H]1CCCCC3 [Example 5, (1R,4S,4aR,8S,11S,13R,25aR)-8-tert-butyl-N-[(1R,2R)-2-(difluoromethyl)-1-{[(1-methylcyclopropyl)sulfonyl]carbamoyl}cyclopropyl]-17-methoxy-6,9-dioxo-2,3,4,4a,6,7,8,9,12,13,21,22,23,24,25,25a-hexadecahydro-1H,11H-1, 4:10,13-dimethanoquinoxalino[2,3-k][1,10,3,6]benzodioxadiazacyclononadecine-11-carboxamide] | 8.68 | 8.38 | 9.57
COc1ccc2nc3c(nc2c1)O[C@@H]1C[C@@H](C(=O)N[C@]2(C(=O)NS(=O)(=O)C4CC4)C[C@H]2C(F)F)N(C1)C(=O)[C@H](C(C)(C)C)NC(=O)O[C@H]1[C@H](CCCCC3)C[C@H]2C[C@H]21 [Example 7, (1aR,1bS,5S,8S,10R,22aR,23aR)-5-tert-butyl-N-[(1R,2R)-1-[(cyclopropylsulfonyl)carbamoyl]-2-(difluoromethyl)cyclopropyl]-14-methoxy-3,6-dioxo-1a,1b,3,4,5,6,9,10,18,19,20,21,22,22a,23,23a-hexadecahydro-1H,8H-7,10-methanocyclopropa[3′,40]cyclopenta[1′,2′:18,19][1,10,3,6]dioxadiazacyclononadecino[11,12-b]quinoxaline-8-carboxamide] | 7.28 | 7.14 | 8.02
COc1ccc2nc3c(nc2c1)O[C@@H]1C[C@@H](C(=O)N[C@]2(C(=O)NS(=O)(=O)C4(C)CC4)C[C@H]2C(F)F)N(C1)C(=O)[C@H](C(C)(C)C)NC(=O)O[C@H]1[C@H](CCCCC3)C[C@H]2C[C@H]21 [Example 8, (1aR,1bS,5S,8S,10R,22aR,23aR)-5-tert-butyl-N-[(1R,2R)-2-(difluoromethyl)-1-{[(1-methylcyclopropyl)sulfonyl]carbamoyl}cyclopropyl]-14-methoxy-3,6-dioxo-1a,1b,3,4,5,6,9,10,18,19,20,21,22,22a, 23,23a-hexadecahydro-1H,8H-7,10-methanocyclopropa[3′,4′]cyclopenta [1′,2′:18,19][1,10,3,6]dioxadiazacyclononadecino[11,12-b]quinoxaline-8-carboxamide] | 7.48 | 7.14 | 8.07
